The values below come from paper PMC10569036.

One series can be described thus: shake flask on a mixture of 185; loss from the water phase only; LC-Orbitrap peak areas. The settings on record: room.
In the case of `CCCCC(CC)C(=O)OCCOCCOCCOCCOC(=O)C(CC)CCCC` (centres unmarked), the “log partition 1-octanol / HPLC water, unbuffered, traces of methanol / DMSO” value (“log partition 1-octanol / HPLC water” below) was found to be 1.119 log10; the “log partition butyl acetate / HPLC water, unbuffered, traces of methanol / DMSO” value (from here on “log partition butyl acetate / HPLC water”) is -0.08786 log10; the “log partition chloroform / HPLC water, unbuffered, traces of methanol / DMSO” value (shortened to “log partition chloroform / HPLC water”) is -0.484 log10; the “log partition cyclohexane / HPLC water, unbuffered, traces of methanol / DMSO” value (“log partition cyclohexane / HPLC water” for short) is on record as -2.242 log10. Moreover, the “log partition dichloromethane / HPLC water, unbuffered, traces of methanol / DMSO” value is on record as -0.03133 log10; the “log partition n-hexane / HPLC water, unbuffered, traces of methanol / DMSO” value (“log partition n-hexane / HPLC water” for short) was -1.802 log10; the “log partition n-octane / HPLC water, unbuffered, traces of methanol / DMSO” value (from here on “log partition n-octane / HPLC water”) is -2.665 log10; the “log partition n-undecane / HPLC water, unbuffered, traces of methanol / DMSO” value (from here on “log partition n-undecane / HPLC water”) is recorded as -0.9886 log10. Further, the “log partition oleylalcohol / HPLC water, unbuffered, traces of methanol / DMSO” value (“log partition oleylalcohol / HPLC water” below) was found to be 1.482 log10 and the “log partition toluene / HPLC water, unbuffered, traces of methanol / DMSO” value (“log partition toluene / HPLC water” for short) worked out at 0.3117 log10.

Consider `C=CC(=O)OCC1CC2CC1C1CCC(COC(=O)C=C)C21` (centres unmarked), for which the “log partition 1-octanol / HPLC water” value is reported as 0.2948 log10; the “log partition butyl acetate / HPLC water” value is given as -0.12 log10; the “log partition chloroform / HPLC water” value is 0.01457 log10; the “log partition cyclohexane / HPLC water” value is recorded as -0.1351 log10. The “log partition dichloromethane / HPLC water, unbuffered, traces of methanol / DMSO” value turned out to be 0.05615 log10; the “log partition n-hexane / HPLC water” value is listed as -0.1023 log10; the “log partition n-octane / HPLC water” value is listed as -0.1158 log10; the “log partition n-undecane / HPLC water” value is on record as 0.0297 log10. Further, the “log partition oleylalcohol / HPLC water” value came to 0.1091 log10 and the “log partition toluene / HPLC water” value stood at 0.1587 log10.

`O=P(OC(CCl)CCl)(OC(CCl)CCl)OC(CCl)CCl`: the “log partition 1-octanol / HPLC water” value turned out to be 0.3708 log10; the “log partition butyl acetate / HPLC water” value is 0.4116 log10; the “log partition chloroform / HPLC water” value is on record as 0.2335 log10; the “log partition cyclohexane / HPLC water” value is 0.5355 log10. Further, the “log partition dichloromethane / HPLC water, unbuffered, traces of methanol / DMSO” value stood at 0.1218 log10; the “log partition n-hexane / HPLC water” value was 0.2465 log10; the “log partition n-octane / HPLC water” value turned out to be 0.2541 log10; the “log partition n-undecane / HPLC water” value worked out at 0.3474 log10. Besides, the “log partition oleylalcohol / HPLC water” value was 0.1893 log10 and the “log partition toluene / HPLC water” value is given as 0.1777 log10.

Consider `CCCCCCCCCCCCN1CCCCCC1=O`, for which the “log partition 1-octanol / HPLC water” value is given as -0.1202 log10; the “log partition butyl acetate / HPLC water” value was -1.099 log10; the “log partition chloroform / HPLC water” value worked out at 0.3816 log10; the “log partition cyclohexane / HPLC water” value is -0.5564 log10. Further, the “log partition dichloromethane / HPLC water, unbuffered, traces of methanol / DMSO” value is given as -0.008559 log10; the “log partition n-hexane / HPLC water” value is given as -0.8813 log10; the “log partition n-octane / HPLC water” value is listed as -0.4901 log10; the “log partition n-undecane / HPLC water” value is listed as -0.9092 log10. The “log partition oleylalcohol / HPLC water” value is on record as -0.7875 log10 and the “log partition toluene / HPLC water” value was -0.5083 log10.

Take `CCCCNS(=O)(=O)c1ccccc1`: the “log partition 1-octanol / HPLC water” value is listed as 0.09093 log10; the “log partition butyl acetate / HPLC water” value was -0.4267 log10; the “log partition chloroform / HPLC water” value was 0.044 log10; the “log partition cyclohexane / HPLC water” value is reported as -0.2649 log10. Further, the “log partition dichloromethane / HPLC water, unbuffered, traces of methanol / DMSO” value is reported as -0.02662 log10; the “log partition n-hexane / HPLC water” value is -0.2215 log10; the “log partition n-octane / HPLC water” value is reported as -0.4356 log10; the “log partition n-undecane / HPLC water” value was -0.4781 log10. Further, the “log partition oleylalcohol / HPLC water” value stood at 0.1238 log10 and the “log partition toluene / HPLC water” value is on record as -0.1107 log10.

Turning to `N#CC(c1ccccc1)c1ccccc1`, the “log partition 1-octanol / HPLC water” value was -0.3597 log10; the “log partition butyl acetate / HPLC water” value stood at 0.2978 log10; the “log partition chloroform / HPLC water” value is -0.002518 log10; the “log partition cyclohexane / HPLC water” value was -0.2823 log10. Further, the “log partition dichloromethane / HPLC water, unbuffered, traces of methanol / DMSO” value is 0.1658 log10; the “log partition n-hexane / HPLC water” value is given as -0.257 log10; the “log partition n-octane / HPLC water” value is recorded as -0.2917 log10; the “log partition n-undecane / HPLC water” value was -0.816 log10. Besides, the “log partition oleylalcohol / HPLC water” value is reported as 0.1292 log10 and the “log partition toluene / HPLC water” value was 0.1711 log10.

For the compound `CC(C)(C)c1ccc(O)c(O)c1`, the “log partition 1-octanol / HPLC water” value is on record as 0.06578 log10; the “log partition butyl acetate / HPLC water” value is -0.6544 log10; the “log partition chloroform / HPLC water” value was determined as 0.08964 log10; the “log partition cyclohexane / HPLC water” value was -0.4267 log10. For the same compound, the “log partition dichloromethane / HPLC water, unbuffered, traces of methanol / DMSO” value is -0.4317 log10; the “log partition n-hexane / HPLC water” value is given as -0.4698 log10; the “log partition n-octane / HPLC water” value is -0.4633 log10; the “log partition n-undecane / HPLC water” value is on record as -0.5006 log10. In addition, the “log partition oleylalcohol / HPLC water” value is -0.3469 log10 and the “log partition toluene / HPLC water” value is on record as -0.3594 log10.

Take `OC(c1ccc(F)cc1)(c1cncnc1)c1ccccc1Cl` (centres unmarked): the “log partition 1-octanol / HPLC water” value was 2.087 log10; the “log partition butyl acetate / HPLC water” value is recorded as 2.226 log10; the “log partition chloroform / HPLC water” value was 2.317 log10; the “log partition cyclohexane / HPLC water” value is given as 2.077 log10. For the same compound, the “log partition dichloromethane / HPLC water, unbuffered, traces of methanol / DMSO” value stood at 2.933 log10; the “log partition n-hexane / HPLC water” value amounted to 1.642 log10; the “log partition n-octane / HPLC water” value turned out to be 1.699 log10; the “log partition n-undecane / HPLC water” value is 1.456 log10. Also, the “log partition oleylalcohol / HPLC water” value was determined as 1.561 log10 and the “log partition toluene / HPLC water” value is given as 2.565 log10.

Consider `CC(=O)c1ccc2ccccc2c1`, for which the “log partition 1-octanol / HPLC water” value is listed as 0.3821 log10; the “log partition butyl acetate / HPLC water” value is -0.9282 log10; the “log partition chloroform / HPLC water” value is -0.4983 log10; the “log partition cyclohexane / HPLC water” value is -0.222 log10. The “log partition dichloromethane / HPLC water, unbuffered, traces of methanol / DMSO” value is given as -0.6955 log10; the “log partition n-hexane / HPLC water” value worked out at 0.5227 log10; the “log partition n-octane / HPLC water” value is 0.6442 log10; the “log partition n-undecane / HPLC water” value is 0.226 log10. Moreover, the “log partition oleylalcohol / HPLC water” value is -0.06645 log10 and the “log partition toluene / HPLC water” value is recorded as -0.371 log10.

`CC(C)c1cccc(O)c1`: the “log partition 1-octanol / HPLC water” value is given as -0.1403 log10; the “log partition butyl acetate / HPLC water” value is listed as -0.382 log10; the “log partition chloroform / HPLC water” value is 0.06183 log10; the “log partition cyclohexane / HPLC water” value is given as -0.6197 log10. In addition, the “log partition dichloromethane / HPLC water, unbuffered, traces of methanol / DMSO” value is listed as -0.09834 log10; the “log partition n-hexane / HPLC water” value is -0.5466 log10; the “log partition n-octane / HPLC water” value is -0.6932 log10; the “log partition n-undecane / HPLC water” value is listed as -0.7318 log10. Further, the “log partition oleylalcohol / HPLC water” value is given as -0.144 log10 and the “log partition toluene / HPLC water” value is -0.5154 log10.

`CC(=O)Nc1ccc(C)cc1C`: the “log partition 1-octanol / HPLC water” value turned out to be 0.5136 log10; the “log partition butyl acetate / HPLC water” value turned out to be 0.7692 log10; the “log partition chloroform / HPLC water” value was 0.52 log10; the “log partition dichloromethane / HPLC water, unbuffered, traces of methanol / DMSO” value is recorded as 0.8573 log10. The “log partition oleylalcohol / HPLC water” value was 0.7926 log10 and the “log partition toluene / HPLC water” value is reported as 0.01564 log10.

A further series is described as follows: shake flask on a mixture of 185; loss from the water phase only; LC-QTOF peak areas. Particulars: room.
Consider `Oc1c(Cl)cc(Cl)c(Cl)c1Cc1c(O)c(Cl)cc(Cl)c1Cl`, for which the “log partition 1-octanol / HPLC water” value turned out to be 3.536 log10; the “log partition butyl acetate / HPLC water” value is listed as 2.622 log10; the “log partition chloroform / HPLC water” value worked out at 2.343 log10; the “log partition cyclohexane / HPLC water” value amounted to 2.027 log10. Moreover, the “log partition dichloromethane / HPLC water, unbuffered, traces of methanol / DMSO” value came out at 1.996 log10; the “log partition n-hexane / HPLC water” value is 1.5 log10; the “log partition n-octane / HPLC water” value is reported as 1.932 log10; the “log partition n-undecane / HPLC water” value is given as 2.251 log10. Also, the “log partition oleylalcohol / HPLC water” value was 2.088 log10 and the “log partition toluene / HPLC water” value is on record as 2.305 log10.
